From patent US20060063784A1, “Method of using substituted pyrazolo [1,5-a] pyrimidines” (priority 2004, published 2006)
Several values for one entry are separate records, joined by “and”; a condition that tells them apart may be missing. Equal values may be shown once. Read-outs that look alike come from different tables or passages of the source.

How the values were obtained:
[1] = test system: 80S14 (p21-deficient) cells; experiment: Cytotoxicity assay using isogenic cell lines: IC50 in 80S14 (p21-deficient) cells, SRB; type: cell-based, human; settings: Homo sapiens
Summary of the method: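 80S14 (p21-deficient) cells seeded at 12,000 cells/well overnight, then exposed 5 days at 37 °C to serial dilutions (5 pM–50 μM or 170 pg/ml–10 μg/ml). TCA-fixed, sulforhodamine B-stained, absorbance at 560 nm; IC50 taken from cytotoxicity curves versus untreated controls.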

LoVo Colon cell line = experiment: Cytotoxicity assay using LoVo colon cell line, SRB; type: cell-based; settings: Homo sapiens, 96 h, read-out: Inhibition of LoVo
Summary of the method: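 LoVo cells (4000/well, RPMI 1640 with 10% FBS, 37 °C, 7% CO2) seeded overnight, then exposed 4 days to serial dilutions spanning 5 pM-20 μM or 170 pg/ml-10 μg/ml. Survival by SRB staining; IC50 from curves relative to untreated controls.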

[2] = 120 h, 80S14 (p21-deficient) cells, 5 days, SRB, class symbols, read-out: IC50 for 80S14
[3] = Cellular activity in LoVo cell, 4 days incubation, SRB
[4] = 120 h, 80S14 p21-deficient cells, 5 days incubation, SRB, read-out: IC50 for 80SI4
[5] = LoVo colon cells, 4 days incubation, SRB

Row | SMILES | IC50 [1, 2] [µM] | melting point | IC50 (LoVo Colon cell line; [3]) [nM] | IC50 [1, 4] [µM] | IC50 (LoVo Colon cell line; [5]) [nM] | IC50 ([1]; 80S14, 120 h, read-out: IC50 for 80S14 (uM)) [µM] | IC50 (LoVo Colon cell line; LoVo) [nM]
1 | O=C(c1cccs1)c1cnn2c(-c3cccs3)ccnc12 [Example 224, 2-Thienyl[7-(2-thienyl)pyrazolo[1,5-a]-pyrimidin-3-yl}-methanone] | 1 to 10 | 193 to 195 °C | – | – | – | – | –
2 | O=C(c1cccs1)c1cnn2c(Cl)ccnc12 [Example 390, (7-Chloropyrazolo[1,5-a]pyrimidin-3-yl)(thien-2-yl)methanone] | 1 to 10 | 148 to 150 °C | 1000 to 20000 | – | – | – | –
3 | CC(C)NC(=NC#N)Nc1cccc(-c2ccnc3c(C(=O)c4cccs4)cnn23)c1 [Example 414, N″-Cyano-N-isopropyl-N′-{3-[3-(thien-2-ylcarbonyl)pyrazolo[1,5-a]pyrimidin-7-yl]phenyl}guanidine] | < 1 | 240 to 241 °C | – | – | – | – | –
4 | O=C(c1cccs1)c1cnn2c(-c3cccc(NC(=O)C4CC4)c3)ccnc12 [Example 249, N-[3-[3-(2-Thienylcarbonyl)pyrazolo[1,5-a]pyrimidin-7-yl]phenyl}-cyclopropanecarboxamide] | < 1 | 192 to 194 °C | – | – | – | – | –
5 | CC(C)CC(=O)Nc1cccc(-c2ccnc3c(-c4cccc(N)c4)cnn23)c1 [Example 464, N-{3-[3-(3-Aminophenyl)pyrazolo[1,5-a]pyrimidin-7-yl]phenyl}-3-methylbutanamide] | 10 to 50 | 173 to 175 °C | 1000 to 20000 | – | – | – | –
6 | Cc1cn(-c2cccc(-c3ccnc4c(C(=O)c5cccs5)cnn34)c2)cn1 [Example 247, [7-[3-(4-Methyl-1H-imidazol-1-yl)phenyl]-pyrazolo[1,5-a]pyrimidin-3-yl]-2-thienyl-methanone] | 1 to 10 | 232 to 234 °C | 100 to 1000 | – | – | – | –
7 | Nc1cccc(-c2ccnc3c(C(=O)c4cccs4)cnn23)c1 [Example 262, [7-(3-Aminophenyl)pyrazolo[1,5-a]pyrimidin-3-yl]-2-thienyl-methanone] | 10 to 50 | 183 to 184 °C and 183 to 185 °C | – | – | – | – | –
8 | O=C(Nc1cccc(-c2ccnc3c(C(=O)c4cccs4)cnn23)c1)c1ccccc1F [Example 358, 2-Fluoro-N-{3-[3-(thien-2-ylcarbonyl)pyrazolo[1,5-a]pyrimidin-7-yl]phenyl}benzamide] | < 1 | 190 to 191 °C | < 100 | – | – | – | –
9 | O=C(Nc1cccc(-c2ccnc3c(C(=O)c4cccs4)cnn23)c1)c1ccncc1 [Example 291, N-{3-[3-(2-Thienylcarbonyl)pyrazolo[1,5-a]pyrimidin-7-yl]phenyl}isonicotinamide] | < 1 | 212 to 215 °C | < 100 | – | – | – | –
10 | O=C(c1cccs1)c1cnn2c(-c3cccc(-c4cc[nH]n4)c3)ccnc12 [Example 514, {7-[3-(1H-Pyrazol-3-yl)phenyl]pyrazolo[1,5-a]pyrimidin-3-yl}(thien-2-yl)methanone] | < 1 | 129 °C | 100 to 1000 | – | – | – | –
11 | O=C(c1ccco1)c1cnn2c(-c3cccc(NC(=O)C4CC4)c3)ccnc12 [Example 235, N-[3-[3-(2-Furanylcarbonyl)-pyrazolo[1,5-a]pyrimidin-7-yl]phenyl}-cyclopropanecarboxamide] | < 1 | 227 to 230 °C | – | – | – | – | –
12 | CCCCNC(=O)Nc1cccc(-c2ccnc3c(C(=O)c4cccs4)cnn23)c1 [Example 8, N-butyl-N′-{3-[3-(thien-2-ylcarbonyl)pyrazolo[1,5-a]pyrimidin-7-yl]phenyl}urea] | – | 158 to 160 °C | – | < 1 | < 100 | – | –
13 | O=C(c1cccs1)c1cnn2c(-c3cccc(-c4ccn(CCN5CCCCC5)n4)c3)ccnc12 [Example 519, (7-{3-[1-(2-piperidin-1-ylethyl)-1H-pyrazol-3-yl]phenyl}pyrazolo[1,5-a]pyrimidin-3-yl)(thien-2-yl)methanone] | 1 to 10 | 62 °C | 100 to 1000 | – | – | – | –
14 | COc1ccccc1/C=C/CNc1cccc(-c2ccnc3c(C(=O)c4cccs4)cnn23)c1 [Example 395, [7-(3-{[(2E)-3-(2-Methoxyphenyl)prop-2-enyl]amino}phenyl)pyrazolo[1,5-a]pyrimidin-3-yl](thien-2-yl)methanone] | 10 to 50 | 128 to 131 °C | 1000 to 20000 | – | – | – | –
15 | O=C(Nc1cccc(-c2ccnc3c(C(=O)c4cccs4)cnn23)c1)OCCCN1CCS(=O)(=O)CC1 [Example 420, 3-(1,1-Dioxidothiomorpholin-4-yl)propyl 3-[3-(thien-2-ylcarbonyl)pyrazolo[1,5-a]pyrimidin-7-yl]phenylcarbamate] | < 1 | 148 to 159 °C | 100 to 1000 | – | – | – | –
16 | CC(C)NC(=N)Nc1cccc(-c2ccnc3c(C(=O)c4cccs4)cnn23)c1 [Example 411, N-Isopropyl-N′-{3-[3-(thien-2-ylcarbonyl)pyrazolo[1,5-a]pyrimidin-7-yl]phenyl}guanidine] | 10 to 50 | > 200 °C | – | – | – | – | –
17 | O=C(c1ccco1)c1cnn2c(-c3cccc(-n4cccc4)c3)ccnc12 [Example 269, 2-Furanyl[7-[3-(1H-pyrrol-1-yl)phenyl]pyrazolo[1,5-a]pyrimidin-3-yl]-methanone] | 1 to 10 | 204 to 206 °C | – | – | – | – | –
18 | O=C(c1cccs1)c1cnn2c(-c3cccc(-n4ccnc4)c3)ccnc12 [Example 244, [7-[3-(1H-imidazol-1-yl)phenyl]pyrazolo-[1,5-a]pyrimidin-3-yl]-2-thienyl-methanone] | 1 to 10 | 242 to 244 °C | – | – | – | – | –
19 | CC(C)CCNc1cccc(-c2ccnc3c(C(=O)c4cccs4)cnn23)c1 [Example 350, {7-[3-(Isopentylamino)phenyl]pyrazolo[1,5-a]pyrimidin-3-yl}(thien-2-yl)methanone] | < 1 | 75 to 77 °C | < 100 | – | – | – | –
20 | CC(C)OC(=O)Nc1cc(-c2ccnc3c(C(=O)c4cccs4)cnn23)ccc1F [Example 347, Isopropyl 2-fluoro-5-[3-(thien-2-ylcarbonyl)pyrazolo[1,5-a]pyrimidin-7-yl]phenylcarbamate] | – | – | – | – | – | < 1 | < 100
21 | O=C(Nc1cccc(-c2ccnc3c(C(=O)c4cccs4)cnn23)c1)c1cccs1 [Example 51, N-{3-[3-(thien-2-ylcarbonyl)pyrazolo[1,5-a]pyrimidin-7-yl]phenyl}thiophene-2-carboxamide] | – | – | – | < 1 | < 100 | – | –
